Literature values in US10172940B2 (priority 2009, dated 2019).

Tested on: canine visceral leishmaniasis (CVL)

N=C(N)c1ccc(OCCCCCOc2ccc(C(=N)N)cc2)cc1 [pentamidine]
clinical recovery / clinical improvement (dog, in vivo): improve clinically | recurrence of the disease (dog, in vivo): show recurrence of the disease

Oc1ncnc2[nH]ncc12 [allopurinol]
parasitological cure and PCR result (20 months of treatment): without parasitological cure or negative results for PCR | clinical recovery / clinical improvement (dog, in vivo): 9/10 | dogs remaining positive for parasites (culture, PCR of lymph node, parasitological aspect) (dog, in vivo): 8 dogs

Meglumine antimoniate
treated dogs from which parasites were recovered (15 dogs treated): 79% | dogs PCR positive after treatment (dog, in vivo): 5/6

NC[C@@H]1O[C@H](O[C@H]2[C@@H](O)[C@H](O[C@@H]3[C@@H](O)[C@H](N)C[C@H](N)[C@H]3O[C@H]3O[C@H](CO)[C@@H](O)[C@H](O)[C@H]3N)O[C@@H]2CO)[C@H](N)[C@@H](O)[C@@H]1O [aminosidine]
dogs remaining positive for parasites (culture, PCR of lymph node, parasitological aspect) (dog, in vivo): 4/4 | dogs with absence of symptoms and parasites for 4 years (higher doses): 3/12 | dogs with relapse (higher doses): 9
